{
  "source": "patent US8686178B2",
  "about": "“Derivative of 18β-glycyrrhetinic acid apt to suppress cancer cells” (Kaohsiung Medical University, priority 2011, dated 2014)",
  "key": {"[1]": {"system": "human bladder cancer cell line NTUB1", "assay": "Trial (A): cytotoxic effect, IC50 by median-effect analysis", "type": "cell-based", "settings": "NTUB1 cells", "description": "(§1) For the sake of proving therapeutic effects of the derivatives of 18β-glycyrrhetinic acid of the present invention, including 10, 11, 13-17 and 21-25, in treating of cancer, human bladder cancer cell line NTUB1, human prostate cancer cell line PC3 cataloged as CRL-1435 (reference to J. Formosan Med. Assoc. 1992; 91:608-13), and immortalized normal human urothelial cells SV-HUC1 cataloged as CRL-9520 are purchased from American Type Culture Collection (ATCC; Rockville, USA) and maintained in a culturing medium respectively till at a preferable density to carry out a serial of trials (comprising trial A to G) for evaluating cytotoxicities of the derivatives of 18β-glycyrrhetinic acid against cancer cells, and mechanisms thereof.\nIn the present invention, the NTUB1 and the PC3 is but not limit to be maintained in RPMI 1640 medium supplemented 10% fetal bovine serum (FBS), 100 unit/mL penicillin-G, 100 μg/mL streptomycin, and 2 mM L-glutamine, yet the SV-HUC1 is maintained in F12 medium supplemented with 10% fetal bovine serum (FBS), 100 unit/mL penicillin-G, 100 μg/mL streptomycin, and 2 mM L-glutamine, culturing at 37° C. in a humidified atmosphere containing 5% CO2 till at a density of 70% per well, followed by repeatedly suspending cells in each well with an ethylene diamine tetra-acetic acid buffer (EDTA buffer; Merck) and counting cell numbers.\nIn the present invention, the IC50 values of each group are presented as mean±standard deviation (SD)."}, "[2]": {"system": "NTUB1", "assay": "Trial (B): MTT cytotoxicity assay, 72 hours", "type": "cell-based, human", "settings": "0-50 μM", "description": "as §1, with “thereof. […]” for “thereof.”\n(§2) In trial (B), the cell lines of NTUB1, PC3, and SV-HUC1 are prepared in 96-well plates and co-incubated with the compounds 21, 23 or 25 in various concentrations of 0, 0.3, 1, 3, 5, 10, 30 and 50 μM, to analyze cytotoxic effects against either cancer cell or normal cells via a modified 3-[4,5-dimethylthiazol-2-yl]-2,5-diphenyltetrazolium bromide (MTT, Sigma Chemical Co.) assay. […] At co-incubation, 50 μL of MTT (2 mg/mL in PB) is added to each well to react for 3 hours, followed by centrifugating the 96-well plates at 1000 g for 10 min to remove supernatant, adding 150 μL DMSO in each well of the 96-well plates, and determining viability rates of the NTUB1, PC3, and SV-HUC1 cells separately by an absorbance spectrometry at 540 nm with a MRX (DYNEXCO) microplate reader."}, "[3]": {"system": "human prostate cancer cell line PC3", "assay": "Trial (B): MTT cytotoxicity assay, 72 hours", "type": "cell-based", "settings": "0-50 μM", "description": "as §1, with “thereof. […]” for “thereof.”\nas §2"}, "[4]": {"system": "immortalized normal human urothelial cells SV-HUC1", "assay": "Trial (B): MTT assay on normal cells, 72 hours", "type": "cell-based", "settings": "0-50 μM", "description": "as §1, with “thereof. […]” for “thereof.”\nas §2"}, "[5]": {"system": "NTUB1 cells", "assay": "Trial (D): production of reactive oxygen species by flow cytometry (DCF)", "type": "cell-based, human", "settings": "24 hours", "experimental": "In trial (D), production of reactive oxygen species (ROS) is analyzed by flow cytometry, since the levels of ROS play an important role in apoptosis.\nReferring to TABLE 4, the NTUB1 cells at a density of 8×10^5 cells/ml are prepared and assigned into 5 groups, including D1 to D5, to incubate in various medium for 24 hours. Next, 10 μM of 2,7-dichlorodihydrofluorescein diacetate (H2DCFHDA; Molecular Probes, Eugene, Oreg.) is added to the NTUB1 cells of each group 30 minutes prior than harvest, followed by collecting the NTUB1 cells of each group respectively and washing with PBS buffer. With such arrangement, the 2,7-dichlorodihydrofluorescein diacetate will penetrate into cells, interact with esterase, and degrade to 2,7-dichlorofluorescein (DCF) having green fluorescein, which can be determined by flow cytometer. In trial (D), green fluorescence of intracellular DCF in each group are analyzed immediately by FACScan flow cytometer (Becton Dickinson) at a wavelength of 525 nm."}, "[6]": {"system": "NTUB1 cells", "assay": "Trial (E): cell cycle progression by flow cytometry (propidium iodide)", "type": "cell-based, human", "design": "Sub-G1 / G1: unit not given here", "settings": "for G1 / G2/M / S / Sub-G1: 24 hours", "experimental": "In order to determine a relationship between the derivatives of 18β-glycyrrhetinic acid of the present invention and cell cycle arrest, trial (E) is carried out by analyzing cell cycle progression by flow cytometry. […] After that, cell cycle progression of each group is determined respectively by incubating with 50 μg/mL propidium iodide (Sigma, Co) and 50 μg/mL RNase A (Sigma, Co) in PBS at room temperature for 30 min, and analyzing by FACScan flow cytometer and Cell Quest sofeware."}, "[7]": {"system": "NTUB1 cells", "assay": "Trial (F): mitochondrial membrane potential (JC-1) by flow cytometry", "type": "cell-based, human", "settings": "for R1 (%): 30 minutes, JC-1, NTUB1", "experimental": "In trial (F), mitochondrial membrane potential (MMP) in NTUB1 cells is measured according to a journal article published by Martin et al., at 2009 in PloS one, in which a dysfunction of the mitochondria caused by ROS induced MPP decrease is supposed.\nReferring to TABLE 6, the NTUB1 cells at a density of 3×10^5 cells/ml are prepared and assigned into 5 groups, including F1 to F5, to incubate in 10 μM carbonyl cyanide 3-chlorophenylhydrazone (CCCP), and 10, 25 and 50 μM of 25 respectively, for 30 minutes, followed by adding 1 μM of 5,5′,6,6′-tetrachloro-1,1′,3,3′-tetraethylbenzimidaolylcarbocyanine iodide (JC-1) (Molecular Probes, Eugene, Oreg., USA) in each group. Then, the NTUB1 cells in each group are washed with PBS buffer for 3 times, collected in PBS/2% BSA, washed twice by centrifugating at 800 g, 5 minutes and resuspending in 0.3 mL PBS/2% BSA, and finally analyzed by a FACSCalibur flow cytometer (Becton Dickinson), with the FACSCalibur flow cytometer determining and calculating a ratio of JC-1 aggregates (red fluorescence) to JC-1 monomers (green fluorescence) based on levels of MMP in each group."}},
  "data": [
    {"smiles": "C=C(C)[C@@H]1CC[C@]2(C)[C@H](C(=O)C=C3[C@@H]4C[C@@](C)(C(=O)NC(C)C)CC[C@]4(C)CC[C@]32C)[C@@]1(C)CCC(=O)NC(C)C", "note": "[Compound 25, 3,4-seco-11-oxo-18β-olean-4(23),12-dien-3,30-diisopropyl carbamate]", "values": [
      {"measurement": "cytotoxic effect against cancer cell", "setting": "[1]; with reference to TABLE 2", "value": "significantly suppress the growth of cancer cells with a lower concentrate"},
      {"measurement": "IC50", "setting": "[1]; mean ± SD", "value": "4.76 ± 1.15", "unit": "µM"},
      {"measurement": "cytotoxic effect (survival ratio, FIGS. 4-6)", "setting": "[2]", "value": "cytotoxic effects against to the cancer cells in a dose-dependent manner, particularly in against to NTUB1 cell"},
      {"measurement": "cytotoxic effect (survival ratio, FIGS. 4-6)", "setting": "[3]", "value": "cytotoxic effects against to the cancer cells in a dose-dependent manner"},
      {"measurement": "effect on growth of normal cells (survival ratio, FIGS. 4-6)", "setting": "[4]", "value": "enhance the growth of SV-HUC1 cells"},
      {"measurement": "ROS (%)", "setting": "[5]; 10 μM", "value": 66.1, "unit": "%"},
      {"measurement": "ROS (%)", "setting": "[5]; 25 μM", "value": 85.6, "unit": "%"},
      {"measurement": "G1", "setting": "[6]; 25 μM, NTUB1", "value": 49.51},
      {"measurement": "G2/M", "setting": "[6]; 25 μM, NTUB1", "value": 12.68},
      {"measurement": "S", "setting": "[6]; 25 μM, NTUB1", "value": 12.69},
      {"measurement": "Sub-G1", "setting": "[6]; 25 μM, NTUB1", "value": 20.39},
      {"measurement": "G1", "setting": "[6]; 50 μM, NTUB1", "value": 35.72},
      {"measurement": "G2/M", "setting": "[6]; 50 μM, NTUB1", "value": 5.22},
      {"measurement": "S", "setting": "[6]; 50 μM, NTUB1", "value": 3.15},
      {"measurement": "Sub-G1", "setting": "[6]; 50 μM, NTUB1", "value": 55.71},
      {"measurement": "G1", "setting": "[6]; 75 μM, NTUB1", "value": 14.69},
      {"measurement": "G2/M", "setting": "[6]; 75 μM, NTUB1", "value": 4.00},
      {"measurement": "S", "setting": "[6]; 75 μM, NTUB1", "value": 2.79},
      {"measurement": "Sub-G1", "setting": "[6]; 75 μM, NTUB1", "value": 78.39},
      {"measurement": "cell cycle arrest", "setting": "[6]; 25, 50 and 75 μM, NTUB1", "value": "does not induce cell cycle arrest"},
      {"measurement": "population of sub-G1 phase", "setting": "[6]; 25, 50 and 75 μM, NTUB1", "value": "induce the population of sub-G1 phase to cancer cells in dose-dependent manner"},
      {"measurement": "S phase cells", "setting": "[6]; NTUB1 exposed to compound", "value": "a decrease of S phase cells"},
      {"measurement": "R1 (%)", "setting": "[7]; 10 μM", "value": 94.14, "unit": "%"},
      {"measurement": "R1 (%)", "setting": "[7]; 25 μM", "value": 87.17, "unit": "%"},
      {"measurement": "R1 (%)", "setting": "[7]; 50 μM", "value": 55.65, "unit": "%"},
      {"measurement": "mitochondrial membrane potential", "setting": "[7]; NTUB1, TABLE 6", "value": "decrease MPP in cancer cells in a dose-dependent manner"}
    ]}
  ]
}
